Laboratory results taken from ChEMBL document CHEMBL4387736, “Anticancer saponin OSW-1 is a novel class of selective Golgi stress inducer” (Bioorg Med Chem Lett, 2019).
Each block holds one compound with its values, some of them ahead of it. Active and inactive are the calls of the source. The rule behind the calls is not given here.

What was measured:
[1] = molecular target: T1, Oxysterol-binding protein 1 (Homo sapiens) (UniProt P22059); assay: Induction of OSBP localization in golgi apparatus of human HeLa cells assessed as increase in colocalization of 58K golgi protein at 5 nM incubated for 30 mins by immunofluorescence imaging method; format: cell-based
T1 sequence (whole entry): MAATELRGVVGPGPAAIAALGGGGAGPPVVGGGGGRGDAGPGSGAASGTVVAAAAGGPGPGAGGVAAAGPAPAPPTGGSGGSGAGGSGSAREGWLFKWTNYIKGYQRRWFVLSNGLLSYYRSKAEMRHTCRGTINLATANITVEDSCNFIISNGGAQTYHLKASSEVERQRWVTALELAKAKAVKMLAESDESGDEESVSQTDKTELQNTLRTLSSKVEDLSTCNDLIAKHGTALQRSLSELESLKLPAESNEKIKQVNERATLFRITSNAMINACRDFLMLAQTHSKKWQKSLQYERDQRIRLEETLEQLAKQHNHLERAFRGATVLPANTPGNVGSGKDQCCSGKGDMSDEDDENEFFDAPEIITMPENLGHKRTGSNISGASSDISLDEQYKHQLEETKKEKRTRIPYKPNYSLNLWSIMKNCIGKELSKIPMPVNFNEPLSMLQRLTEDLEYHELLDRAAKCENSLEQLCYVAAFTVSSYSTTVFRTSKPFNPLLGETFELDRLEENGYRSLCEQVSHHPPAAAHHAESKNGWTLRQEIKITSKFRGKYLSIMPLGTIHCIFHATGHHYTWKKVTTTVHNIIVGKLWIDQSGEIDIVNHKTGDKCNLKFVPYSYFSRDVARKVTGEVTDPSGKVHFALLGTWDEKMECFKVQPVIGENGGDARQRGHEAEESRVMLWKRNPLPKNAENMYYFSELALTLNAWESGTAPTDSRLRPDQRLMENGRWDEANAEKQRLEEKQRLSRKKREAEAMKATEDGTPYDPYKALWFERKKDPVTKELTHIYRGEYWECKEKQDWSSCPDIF

[2] = molecular target: T1, Oxysterol-binding protein 1 (Homo sapiens); assay: Induction of OSBP localization in golgi apparatus of human HeLa cells assessed as dispersion of GM130 in to cytosol at 2 uM incubated for 6 hrs by immunofluorescence microscopic method; format: cell-based
[3] = molecular target: T1, Oxysterol-binding protein 1 (Homo sapiens); assay: Induction of OSBP localization in golgi apparatus of human HeLa cells assessed as induction of cytosolic OSBP aggregation into vesicular structures at Golgi at 0.5 uM by eYFP detection based time-lapse imaging; format: cell-based
[4] = molecular target: T1, Oxysterol-binding protein 1 (Homo sapiens); assay: Inhibition of OSBP in human HeLa cells assessed as induction of golgi stress by measuring TFE3(S)/TFE3(L) dephosphorylation at 1 uM incubated for 2 hrs by Western blot analysis; format: cell-based
[5] = molecular target: T1, Oxysterol-binding protein 1 (Homo sapiens); assay: Inhibition of OSBP in human HeLa cells assessed as induction of golgi stress by measuring TFE3 nuclear translocation at 2 uM incubated for 4 hrs by immunofluorescence imaging analysis; format: cell-based
[6] = molecular target: T1, Oxysterol-binding protein 1 (Homo sapiens); assay: Inhibition of OSBP in human HeLa cells assessed as induction of golgi stress by measuring increase in TFE3-mediated GM130 mRNA expression at 2 uM incubated for 12 hrs; format: cell-based
[7] = molecular target: T1, Oxysterol-binding protein 1 (Homo sapiens); assay: Inhibition of OSBP in human HeLa cells assessed as induction of golgi stress by measuring downregulation of HSP47 mRNA expression at 2 uM incubated for 12 hrs; format: cell-based
[8] = molecular target: T1, Oxysterol-binding protein 1 (Homo sapiens); assay: Inhibition of OSBP in human HeLa cells assessed as induction of golgi stress by measuring upregulation of ARF4 mRNA expression at 2 uM incubated for 12 hrs; format: cell-based
[9] = molecular target: T1, Oxysterol-binding protein 1 (Homo sapiens); assay: Inhibition of OSBP in human HeLa cells assessed as induction of golgi stress by measuring GASE transactivation at 1 uM incubated for 24 hrs by GASE-luciferase reporter gene assay; format: cell-based
[10] = tested on: Panel NCI-60 (60 carcinoma cell lines); assay: Growth inhibition of human NCI60 cells; format: functional
[11] = molecular target: T1, Oxysterol-binding protein 1 (Homo sapiens); assay: Induction of OSBP localization in golgi apparatus of human HeLa cells assessed as dispersion of giantin in to cytosol at 2 uM incubated for 6 hrs by immunofluorescence microscopic method; format: cell-based
[12] = molecular target: T1, Oxysterol-binding protein 1 (Homo sapiens); assay: Inhibition of OSBP in human HeLa cells assessed as induction of golgi stress by measuring increase in TFE3-mediated GCP60 mRNA expression at 2 uM incubated for 12 hrs; format: cell-based
[13] = molecular target: T1, Oxysterol-binding protein 1 (Homo sapiens); assay: Inhibition of OSBP in human HeLa cells assessed as induction of golgi stress by measuring increase in TFE3-mediated UAP1L1 mRNA expression at 2 uM incubated for 12 hrs; format: cell-based
[14] = molecular target: T1, Oxysterol-binding protein 1 (Homo sapiens); assay: Inhibition of OSBP in human HeLa cells assessed as induction of golgi stress by measuring increase in TFE3-mediated SIAT4A mRNA expression at 2 uM incubated for 12 hrs; format: cell-based
HeLa [15] = assay: Induction of ER stress in human HeLa cells assessed as effect on pATF6(P) level at 1 uM incubated for 1 to 24 hrs by immunoblotting analysis; format: functional, cell-based
HeLa [16] = assay: Induction of ER stress in human HeLa cells assessed as effect on pATF6(N) level at 1 uM incubated for 1 to 24 hrs by immunoblotting analysis; format: functional, cell-based
HeLa [17] = assay: Induction of ER stress in human HeLa cells assessed as effect on pXBP1(S) level at 1 uM incubated for 1 to 24 hrs by immunoblotting analysis; format: functional, cell-based
HeLa [18] = assay: Induction of ER stress in human HeLa cells assessed as effect on P-eIF2alpha level at 1 uM incubated for 1 to 24 hrs by immunoblotting analysis; format: functional, cell-based
HeLa [19] = assay: Induction of ER stress in human HeLa cells assessed as effect on eIF2alpha level at 1 uM incubated for 1 to 24 hrs by immunoblotting analysis; format: functional, cell-based
HeLa [20] = assay: Induction of ER stress in human HeLa cells assessed as effect on ATF4 level at 1 uM incubated for 1 to 24 hrs by immunoblotting analysis; format: functional, cell-based
HeLa [21] = assay: Induction of ER stress in human HeLa cells assessed as effect on CHOP level at 1 uM incubated for 1 to 24 hrs by immunoblotting analysis; format: functional, cell-based
HeLa [22] = assay: Induction of ER stress in human HeLa cells assessed as effect on CHOP mRNA level at 2 uM incubated for 1 1 hrs by qRT-PCR analysis; format: functional, cell-based
HeLa [23] = assay: Induction of ER stress in human HeLa cells assessed as effect on BiP mRNA level at 2 uM incubated for 1 1 hrs by qRT-PCR analysis; format: functional, cell-based
HeLa [24] = assay: Induction of ER stress in human HeLa cells assessed as effect on ERdj4 mRNA level at 2 uM incubated for 1 1 hrs by qRT-PCR analysis; format: functional, cell-based
[25] = Drug localization in golgi apparatus of human HeLa cells at 0.5 uM by fluorescence microscopy; format: ADME, subcellular

Activity [1]: Active
Activity [2]: Active
Activity [3]: Active
inhibition [4]: Active
inhibition [5]: Active
inhibition [6]: Active
inhibition [7]: Active
inhibition [8]: Active
inhibition [9]: Active
Activity [11]: Active
inhibition [12]: Active
inhibition [13]: Active
inhibition [14]: Active
SMILES: COc1ccc(C(=O)O[C@H]2[C@H](O[C@@H]3[C@@H](OC(C)=O)[C@H](O[C@H]4C[C@H]5[C@@H]6CC=C7C[C@@H](O)CC[C@]7(C)[C@H]6CC[C@]5(C)[C@@]4(O)[C@H](C)C(=O)CCC(C)C)OC[C@@H]3O)OC[C@@H](O)[C@@H]2O)cc1
GI50 [10]: 0.78 nM
Activity (HeLa [15]): inactive
Activity (HeLa [16]): inactive
Activity (HeLa [17]): inactive
Activity (HeLa [18]): inactive
Activity (HeLa [19]): inactive
Activity (HeLa [20]): inactive
Activity (HeLa [21]): inactive
Activity (HeLa [22]): inactive
Activity (HeLa [23]): inactive
Activity (HeLa [24]): inactive

Drug uptake [25]: Active
SMILES: COc1ccc(C(=O)O[C@H]2[C@H](O[C@@H]3[C@@H](OC(C)=O)[C@H](O[C@H]4C[C@H]5[C@@H]6CC=C7C[C@@H](O)CC[C@]7(C)[C@H]6CC[C@]5(C)[C@@]4(O)[C@H](C)C(=O)CCC(C)C)OC[C@@H]3O)OC[C@@H](OC(=O)CN(C)c3ccc(S(=O)(=O)N(C)C)c4nonc34)[C@@H]2O)cc1
GI50 [10]: 4 nM
